Results on one substance are retold here after paper PMC10747822 (Pharmaceutics, 2023).

A short description of data set [1]: Pooled human plasma (Li-heparin). The following applies: room temperature, up to 2 h.
The nature of data set [2]: human whole blood (K-EDTA). Particulars: room temperature, up to 2 h.

With Ac-[D-Leu]LLLRVK-amba, the not cleaved result in data set [1] and in data set [2] was “no detectable degradation over at least 2 h” in each case.
